Laboratory results as given in article PMC7376644 (Pharmacology Research & Perspectives, 2020).

Assays:
CYP1A2 [1] = test: CYP selective diagnostic inhibition studies in HLM, furafylline; type: in vitro ADME, human; settings: furafylline 10 µmol/L
Experimental: (§1) Reactions were carried out in triplicate in 96 well plates. Each reaction was measured at 2 time points, that is at 0 and 30 minutes. […] Furafylline, KTZ, ticlopidine, and quinidine were used as diagnostic inhibitors for CYP 1A2, 3A4/5, 2C19 and 2D6, respectively. The reactions were initiated by addition of NADPH after a pre‐incubation of 5 minutes at 37°C. All reactions were terminated by the addition of 150 µL ice‐cold ACN. Internal standard (0.2 µmol/L DPZ) was added to ACN prior to termination of the assay. This was followed by centrifugation at 4500 g for 20 minutes. An aliquot (50 µL) supernatant was collected and 5 µL was injected and analyzed by liquid chromatography/tandem mass spectrometry (LC/MS/MS). The percent effect of each inhibitor was the estimated contribution of the inhibited CYP calculated using the relationship below: %contribution=amount remaining with inhibitor‐amount remaining without inhibitor/amount remaining without inhibitor×100.

CYP2D6 = test: CYP selective diagnostic inhibition studies in HLM, quinidine; type: in vitro ADME, human; settings: quinidine 10 µmol/L
Experimental: as §1

CYP2C19 [2] = test: CYP selective diagnostic inhibition studies in HLM, ticlopidine; type: in vitro ADME, human; settings: ticlopidine 10 µmol/L
Experimental: as §1

CYP3A4/5 = test: CYP selective diagnostic inhibition studies in HLM, ketoconazole; type: in vitro ADME, human; settings: ketoconazole 10 µmol/L
Experimental: as §1

HLM [3] = test: Intrinsic clearance, substrate depletion approach; type: in vitro ADME, human; settings: HLM, substrate depletion, well‐stirred model
Experimental: The generic conditions were previously described by Masimirembwa and co‐workers. ^24 , ^25 Each reaction mixture consisted of substrate incubated with appropriate enzyme, substrate, and NADPH in potassium phosphate buffer pH 7.4 in a final volume of 200 µL. The substrate was diluted to 40% ACN so that the percent organic component in the final solution was maintained at 1%. The reactions were quenched with 3 volumes of stop solution containing ACN and 0.8% formic acid at 0, 5, 10, 20, 30, 40, and 60 minutes. This was followed by centrifugation at 4500 g for 20 minutes. An aliquot (50 µL) supernatant was collected and diluted (1:1) in water prior to LC‐MS/MS analysis.
Each reaction was monitored over 7 time points.
(§2) The well‐stirred model was used to estimate the hepatic clearance (CLH) due to metabolism.

HLM [4] = test: Enzyme kinetics of hydroxylated metabolites formation; type: in vitro ADME, human
Experimental: The reactions were carried out in duplicate at each time point. Incubation conditions used for the determination of K M and V max were optimized for linearity with respect to time and protein concentrations. […] Metabolites were analyzed by LC‐MS/MS as described below. The K M and V max values of each marker substrate were determined using nonlinear least squares regression analysis in GraFit software (version 3.0, Erithacus Software Limited) and SigmaPlot Enzyme Kinetics Module for Windows 7.0 (SPSS, Inc). […]

[5] = Simcyp prediction of total hepatic clearance; design: species or system human
Experimental: The clearance of the incubation mixture was expressed as μL/min/pmol for rCYP.
as §2

[6] = cited from earlier work
[7] = cited from earlier work; remark: listed apart in the source
CYP1A2 [8] = biological target: T1, CYP1A2 (Homo sapiens, UniProt P05177); test: Enzyme kinetics of hydroxylated metabolites formation; type: in vitro ADME; design: purchased CYPEX CYP001; host or cells: Escherichia coli; settings: CYP1A2, formation of cis‐4‐OH‐PZQ
T1 sequence (P05177 1-516): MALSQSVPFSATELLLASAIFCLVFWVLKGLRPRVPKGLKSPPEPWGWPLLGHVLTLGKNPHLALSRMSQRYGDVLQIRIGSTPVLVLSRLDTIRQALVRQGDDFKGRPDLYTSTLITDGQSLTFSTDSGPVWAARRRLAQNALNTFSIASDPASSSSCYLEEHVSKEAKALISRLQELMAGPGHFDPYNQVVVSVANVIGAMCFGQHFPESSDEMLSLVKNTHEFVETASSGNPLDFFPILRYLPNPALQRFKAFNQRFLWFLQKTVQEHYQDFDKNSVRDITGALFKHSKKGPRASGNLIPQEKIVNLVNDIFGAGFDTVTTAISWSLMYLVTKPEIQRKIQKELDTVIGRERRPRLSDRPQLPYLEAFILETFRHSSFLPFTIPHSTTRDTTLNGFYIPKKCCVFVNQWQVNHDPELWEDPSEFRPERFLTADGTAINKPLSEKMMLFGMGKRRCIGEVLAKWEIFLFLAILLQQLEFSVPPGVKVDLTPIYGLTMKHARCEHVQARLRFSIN
Experimental: (§3) The reactions were carried out in duplicate at each time point. Incubation conditions used for the determination of K M and V max were optimized for linearity with respect to time and protein concentrations. […] Metabolites were analyzed by LC‐MS/MS as described below. The K M and V max values of each marker substrate were determined using nonlinear least squares regression analysis in GraFit software (version 3.0, Erithacus Software Limited) and SigmaPlot Enzyme Kinetics Module for Windows 7.0 (SPSS, Inc).
as §2

CYP2C19 [9] = biological target: CYP2C19 (Homo sapiens, UniProt P33261); test: as above; type: in vitro ADME; design: purchased CYPEX CYP008; host or cells: Escherichia coli; settings: CYP2C19, formation of cis‐4‐OH‐PZQ
Chain of CYP2C19 (Homo sapiens, UniProt P33261) (P33261 whole entry): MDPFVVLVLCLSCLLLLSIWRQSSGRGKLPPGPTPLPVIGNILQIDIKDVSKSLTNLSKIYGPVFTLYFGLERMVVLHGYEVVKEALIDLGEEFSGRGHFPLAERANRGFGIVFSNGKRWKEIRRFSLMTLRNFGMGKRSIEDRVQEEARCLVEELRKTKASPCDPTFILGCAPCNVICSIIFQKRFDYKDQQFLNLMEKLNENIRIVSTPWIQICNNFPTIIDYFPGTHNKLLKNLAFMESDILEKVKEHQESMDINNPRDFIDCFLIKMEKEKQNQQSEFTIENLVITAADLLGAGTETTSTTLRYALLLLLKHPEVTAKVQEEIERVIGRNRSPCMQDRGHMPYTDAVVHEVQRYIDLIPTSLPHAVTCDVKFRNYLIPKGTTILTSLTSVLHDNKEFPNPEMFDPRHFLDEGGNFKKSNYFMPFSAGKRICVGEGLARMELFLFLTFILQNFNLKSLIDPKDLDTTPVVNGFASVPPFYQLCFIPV
Experimental: as §3, §2

[10] = cited from earlier work; for Increase of exposure with KTZ: PZQ metabolism inhibited by KTZ

SMILES | Contribution of CYP1A2 (CYP1A2 [1]) | Contribution of CYP2D6 (CYP2D6) | Contribution of CYP2C19 (CYP2C19 [2]) | Contribution of CYP3A4/5 (CYP3A4/5) | Predicted CLH (HLM [3]) | K M [SD] (HLM [4]; formation of X‐OH‐PZQ) | V max [SD] (HLM [4]; formation of X‐OH‐PZQ) | K M [SD] (HLM [4]; formation of cis‐4‐OH‐PZQ) | V max [SD] (HLM [4]; formation of cis‐4‐OH‐PZQ) | Predicted total CLH (Simcyp) ([5]; metabolite formation assay) | Predicted total CLH (Simcyp) ([5]; substrate depletion assay) | Oral dose eliminated renally (unchanged drug and metabolites) [6] | Systemic bioavailability [6] | Increase in bioavailability ([6]; co‐administration with cimetidine) | Drug excreted within 24 hours ([6]; in man) | Fraction unbound in plasma (fu) [7] | CLuH,int (CYP1A2 [8]) | CLuH,int (CYP2C19 [9]) | Increase of exposure with KTZ [10] | Amount relative to cis 4‐OH PZQ in vivo ([10]; ref NLeya et al (19))
O=C(C1CCCCC1)N1CC(=O)N2CCc3ccccc3C2C1 (stereo not drawn) [PZQ, praziquantel] | −54% | 35% | 127% | 97% | 11.70 mL/min/kg | 118.6 [35.79] µmol/L | 11.10 [2.074] nmol/min/mg protein | 32.60 [3.982] µmol/L | 0.5978 [0.028] nmol/min/mg protein | 11.44 mL/min/kg | 3.656 mL/min/kg | More than 80% | < 20% | 100% | more than 80% | 0.2 | 6.870 mL/min/kg | 4.600 mL/min/kg |  | 
O=C(C1CCC(O)CC1)N1CC(=O)N2CCc3ccccc3C2C1 (stereo not drawn) [trans‐4‐OH PZQ, trans‐4‐hydroxy‐PZQ] |  |  |  |  |  |  |  |  |  |  |  |  |  |  |  |  |  |  | 67% | 30 times
O=C1CN(C(=O)[C@H]2CC[C@@H](O)CC2)CC2c3ccccc3CCN12 (stereo partly drawn) [cis‐4‐OH PZQ, cis‐4‐hydroxy‐PZQ] |  |  |  |  |  |  |  |  |  |  |  |  |  |  |  |  |  |  | 57% | 
